Among the data in US20230364070A1, “PYRROLO[3,2-C]PYRIDIN-4-ONE DERIVATIVES USEFUL IN THE TREATMENT OF CANCER” (Scorpion Therapeutics, Inc., priority 2020, published 2023) are IC50 values, retold here.

Holding throughout (type): cell-based
Assay [1] deals with T1, Ba/F3 cells with EGFR exon 20 NPG Ins D770_N771 (Homo sapiens, UniProt P00533, INS770NPG).
T1 construct: expressed in transfected cells; host or cells: Ba/F3 (murine pro-B cells), retroviral transduction, puromycin selection, IL3-independent pool
Put plainly: EGFR activity: Ba/F3 cell viability (CellTiter-Glo, 72 h), EGFR exon 20 NPG insertion. The conditions noted are these: EGFR exon 20 NPG Ins D770_N771, cell viability, read-out: BaF3 NPG IC50. In general terms: In ATP-based viability assays light output follows the ATP content of the culture.

The target of the next assay is T2, Ba/F3 cells with EGFR WT (Homo sapiens, UniProt P00533).
T2 construct: expressed in transfected cells; host or cells: Ba/F3 (murine pro-B cells), retroviral transduction, puromycin selection, maintained with EGF
The assay can be described thus: EGFR activity: Ba/F3 cell viability (CellTiter-Glo, 72 h), EGFR WT. The note with it: read-out: BaF3 WT IC50.

Assay [2] has as its target T3, Ba/F3 cells with EGFR exon 20 ASV Ins V769_D770 (Homo sapiens, UniProt P00533, INS769ASV).
T3 construct: expressed in transfected cells; host or cells: Ba/F3 (murine pro-B cells), retroviral transduction, puromycin selection, IL3-independent pool
Put plainly: EGFR activity: Ba/F3 cell viability (CellTiter-Glo, 72 h), EGFR exon 20 ASV insertion. The conditions noted are these: EGFR exon 20 ASV Ins V769_D770, cell viability, read-out: BaF3 ASV IC50.

A further assay addresses T4, pEGFR in CUTO14 cells (Homo sapiens, UniProt P00533, DUP767-769).
T4 construct: endogenous in cells; host or cells: CUTO14 cells
The assay can be described thus: Inhibitor activity on EGFR phosphorylation (pEGFR AlphaLISA, 2 h), CUTO14 cells. The procedure: CUTO14 cells were obtained from Dr. Robert C. Doebele at the University of Colorado.
Shake 350 rpm for 1 hr in the dark • 3.4 Prepare donor mix under low light conditions prior to use. Dispense 5 μL of donor mix to all the wells. Mix well on the shaker, seal and wrap in aluminum foil and incubate 1.5 hrs at room temperature in the dark • 3.5 Transfer 18.5 μL mixture to OptiPlate 384, and read using an Envision.
For orientation: In Alpha technology, singlet oxygen from a donor bead excites a nearby acceptor bead.

SMILES strings stand for the structures. Some results are limits rather than exact numbers.

T2 sequence (P00533 25-1210): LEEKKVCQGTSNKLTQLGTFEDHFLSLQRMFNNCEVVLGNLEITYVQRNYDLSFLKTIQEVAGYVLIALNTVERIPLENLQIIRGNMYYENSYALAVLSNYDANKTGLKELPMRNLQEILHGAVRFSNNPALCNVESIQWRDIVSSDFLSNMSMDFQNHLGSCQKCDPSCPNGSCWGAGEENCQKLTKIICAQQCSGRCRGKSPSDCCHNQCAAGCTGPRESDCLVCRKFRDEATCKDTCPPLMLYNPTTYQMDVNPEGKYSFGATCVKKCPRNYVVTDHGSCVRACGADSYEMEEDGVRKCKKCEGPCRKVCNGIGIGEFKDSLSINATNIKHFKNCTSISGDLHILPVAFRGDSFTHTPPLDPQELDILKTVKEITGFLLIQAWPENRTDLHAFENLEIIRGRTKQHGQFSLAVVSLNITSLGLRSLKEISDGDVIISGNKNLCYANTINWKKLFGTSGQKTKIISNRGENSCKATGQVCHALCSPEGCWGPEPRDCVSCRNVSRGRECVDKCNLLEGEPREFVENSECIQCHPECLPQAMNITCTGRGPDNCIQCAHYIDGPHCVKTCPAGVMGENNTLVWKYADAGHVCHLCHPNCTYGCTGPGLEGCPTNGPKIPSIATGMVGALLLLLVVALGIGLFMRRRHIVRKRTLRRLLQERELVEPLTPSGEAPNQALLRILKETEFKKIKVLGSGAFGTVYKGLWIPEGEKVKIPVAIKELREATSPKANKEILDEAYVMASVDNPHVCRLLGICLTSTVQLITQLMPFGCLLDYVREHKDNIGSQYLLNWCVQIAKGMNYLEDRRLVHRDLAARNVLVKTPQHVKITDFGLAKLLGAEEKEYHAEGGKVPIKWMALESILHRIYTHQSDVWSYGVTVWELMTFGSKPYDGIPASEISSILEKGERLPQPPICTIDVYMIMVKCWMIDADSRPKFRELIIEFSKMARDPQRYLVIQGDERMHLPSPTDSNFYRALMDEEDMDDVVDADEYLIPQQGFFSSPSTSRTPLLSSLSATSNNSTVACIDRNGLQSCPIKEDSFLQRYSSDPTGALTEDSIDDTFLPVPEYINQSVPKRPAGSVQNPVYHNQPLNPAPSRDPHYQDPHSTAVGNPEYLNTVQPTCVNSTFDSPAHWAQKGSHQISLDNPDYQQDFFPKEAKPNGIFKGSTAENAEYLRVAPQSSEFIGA
T3 sequence (P00533 with tags, fused parts or gaps INS769ASV): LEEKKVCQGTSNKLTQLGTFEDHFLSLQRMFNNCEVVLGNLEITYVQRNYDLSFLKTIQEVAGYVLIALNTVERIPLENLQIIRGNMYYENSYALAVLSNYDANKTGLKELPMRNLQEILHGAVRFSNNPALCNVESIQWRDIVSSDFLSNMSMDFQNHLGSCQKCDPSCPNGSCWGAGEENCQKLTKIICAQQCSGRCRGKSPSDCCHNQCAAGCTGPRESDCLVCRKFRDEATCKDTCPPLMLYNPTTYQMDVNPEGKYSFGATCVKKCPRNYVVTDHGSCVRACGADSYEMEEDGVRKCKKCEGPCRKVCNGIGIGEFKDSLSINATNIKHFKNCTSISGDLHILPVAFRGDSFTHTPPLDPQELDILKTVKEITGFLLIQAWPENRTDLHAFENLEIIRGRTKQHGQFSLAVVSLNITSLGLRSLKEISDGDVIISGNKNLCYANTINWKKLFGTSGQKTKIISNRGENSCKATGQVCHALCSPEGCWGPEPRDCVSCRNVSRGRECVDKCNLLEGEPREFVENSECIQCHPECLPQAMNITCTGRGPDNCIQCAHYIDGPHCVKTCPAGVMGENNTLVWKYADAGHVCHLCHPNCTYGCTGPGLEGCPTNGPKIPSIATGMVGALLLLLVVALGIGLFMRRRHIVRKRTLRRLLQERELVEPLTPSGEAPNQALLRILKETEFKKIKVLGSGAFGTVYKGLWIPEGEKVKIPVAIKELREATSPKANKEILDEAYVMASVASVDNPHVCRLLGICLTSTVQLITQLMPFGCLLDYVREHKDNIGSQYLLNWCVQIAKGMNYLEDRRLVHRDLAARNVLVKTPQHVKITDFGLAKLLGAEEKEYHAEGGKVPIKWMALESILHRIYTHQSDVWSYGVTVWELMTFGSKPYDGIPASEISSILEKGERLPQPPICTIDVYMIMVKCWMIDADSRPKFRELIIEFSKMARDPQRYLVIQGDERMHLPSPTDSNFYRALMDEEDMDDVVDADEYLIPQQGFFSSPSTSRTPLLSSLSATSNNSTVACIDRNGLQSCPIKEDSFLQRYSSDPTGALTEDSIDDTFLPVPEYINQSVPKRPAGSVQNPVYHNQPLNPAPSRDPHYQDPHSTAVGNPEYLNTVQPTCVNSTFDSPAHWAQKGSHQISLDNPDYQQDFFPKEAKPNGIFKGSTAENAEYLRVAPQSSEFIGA
T4 sequence (P00533 with tags, fused parts or gaps DUP767-769): as the sequence (P00533 with tags, fused parts or gaps INS769ASV) above
T1 sequence (P00533 with tags, fused parts or gaps INS770NPG): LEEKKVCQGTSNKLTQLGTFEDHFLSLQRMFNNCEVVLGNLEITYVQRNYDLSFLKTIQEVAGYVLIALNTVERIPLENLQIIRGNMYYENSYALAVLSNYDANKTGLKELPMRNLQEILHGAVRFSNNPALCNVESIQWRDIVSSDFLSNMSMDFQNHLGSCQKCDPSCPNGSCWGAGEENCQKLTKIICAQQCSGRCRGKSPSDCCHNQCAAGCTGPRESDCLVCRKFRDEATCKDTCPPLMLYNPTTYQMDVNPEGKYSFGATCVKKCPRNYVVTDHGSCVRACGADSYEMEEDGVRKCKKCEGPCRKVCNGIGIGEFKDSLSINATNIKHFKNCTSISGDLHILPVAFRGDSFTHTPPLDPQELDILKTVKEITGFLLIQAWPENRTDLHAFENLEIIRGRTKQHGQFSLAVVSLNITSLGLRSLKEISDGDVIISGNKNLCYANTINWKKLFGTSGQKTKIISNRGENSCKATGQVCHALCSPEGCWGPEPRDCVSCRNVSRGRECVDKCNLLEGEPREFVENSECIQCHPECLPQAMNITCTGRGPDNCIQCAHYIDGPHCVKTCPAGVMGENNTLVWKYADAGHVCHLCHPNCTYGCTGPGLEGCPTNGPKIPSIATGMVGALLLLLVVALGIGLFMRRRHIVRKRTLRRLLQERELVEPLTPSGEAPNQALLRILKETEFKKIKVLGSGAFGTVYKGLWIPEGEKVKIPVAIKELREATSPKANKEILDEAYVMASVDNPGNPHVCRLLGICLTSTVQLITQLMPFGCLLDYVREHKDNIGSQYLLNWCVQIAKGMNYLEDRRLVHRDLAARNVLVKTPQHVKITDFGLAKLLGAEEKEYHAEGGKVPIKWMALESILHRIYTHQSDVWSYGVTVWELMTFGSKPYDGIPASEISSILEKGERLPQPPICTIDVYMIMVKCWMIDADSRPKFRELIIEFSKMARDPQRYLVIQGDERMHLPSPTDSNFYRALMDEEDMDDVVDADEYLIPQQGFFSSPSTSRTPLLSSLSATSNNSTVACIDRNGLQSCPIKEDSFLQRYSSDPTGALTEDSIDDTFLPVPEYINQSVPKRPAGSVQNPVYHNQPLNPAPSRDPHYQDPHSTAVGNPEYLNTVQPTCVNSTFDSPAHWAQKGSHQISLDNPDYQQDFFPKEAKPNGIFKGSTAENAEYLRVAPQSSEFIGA

Regarding `C=CC(=O)NC1(C#Cc2cnccc2-c2[nH]c3c(c2Nc2cccc(F)c2OC)C(=O)NCC3)CC(F)(F)C1` [compound 401], the IC50 in assay [1] was less than 100 nM; on Ba/F3 cells with EGFR WT it was 100 to 1000 nM; in assay [2] it was less than 100 nM; on pEGFR in CUTO14 cells it was less than 100 nM.
With `C=CC(=O)N1CCC[C@]1(C)C#Cc1cnccc1-c1[nH]c2c(c1Nc1cc(F)cc(Cl)c1OC)C(=O)NCC2` [compound 430], the IC50 in assay [1] was less than 100 nM; on Ba/F3 cells with EGFR WT, 100 to 1000 nM; in assay [2], less than 100 nM; on pEGFR in CUTO14 cells it was less than 100 nM.
As for `C=CC(=O)N1CCN(C)C[C@@H]1COc1cnccc1-c1[nH]c2c(c1Nc1cccc(F)c1OC)C(=O)NCC2` [compound 566], the concentration for half-maximal inhibition (IC50) is 100 to 1000 nM in assay [1], greater than 1000 nM at Ba/F3 cells with EGFR WT, greater than 1000 nM in assay [2] and greater than 1000 nM against pEGFR in CUTO14 cells.
On to `C=CC(=O)N1[C@H](C#Cc2cnccc2-c2[nH]c3c(c2Nc2cccc(F)c2OC)C(=O)NCC3)CC[C@@H]1C` [compound 255, 3-[(3-fluoro-2-methoxyphenyl)amino]-2-(3-{2-[(2S,5S)-5-methyl-1-(prop-2-enoyl)pyrrolidin-2-yl]ethynyl}pyridin-4-yl)-1H,5H,6H,7H-pyrrolo[3,2-c]pyridin-4-one], for which the IC50 (in assay [1]; on Ba/F3 cells with EGFR WT; in assay [2]; against pEGFR in CUTO14 cells) was less than 100 nM in each case.
Take `C=CC(=O)N1[C@@H](COc2cnccc2-c2[nH]c3c(c2Nc2cccc(Cl)c2OC)C(=O)NCC3)C[C@H]1C` [compound 271]: the IC50 (in assay [1]; on Ba/F3 cells with EGFR WT; in assay [2]; against pEGFR in CUTO14 cells) was less than 100 nM each time.
As for `CC#CC(=O)N1CC[C@@]1(C)COc1cnccc1-c1[nH]c2c(c1Nc1cccc(F)c1OC)C(=O)NCC2` [compound 357], the IC50 is 100 to 1000 nM in assay [1], greater than 1000 nM at Ba/F3 cells with EGFR WT, 100 to 1000 nM in assay [2] and 100 to 1000 nM at pEGFR in CUTO14 cells.
Turning to `C=CC(=O)NC(C)(C)COc1cnccc1-c1[nH]c2c(c1Nc1cccc(Cl)c1OC)C(=O)NCC2` [compound 448], the IC50 in assay [1] was less than 100 nM; on Ba/F3 cells with EGFR WT, 100 to 1000 nM; in assay [2], less than 100 nM; against pEGFR in CUTO14 cells, less than 100 nM.
With `C=CC(=O)N1[C@H](COc2cnccc2-c2[nH]c3c(c2Nc2cccc(Cl)c2OC)C(=O)NCC3)C[C@H]1C` [compound 270], the IC50 is less than 100 nM in assay [1], 100 to 1000 nM at Ba/F3 cells with EGFR WT, less than 100 nM in assay [2] and less than 100 nM at pEGFR in CUTO14 cells.
On to `C=CC(=O)N1CC2CC1(C#Cc1cnccc1-c1[nH]c3c(c1Nc1cccc(F)c1C)C(=O)NCC3)C2` [compound 452], for which the IC50 is less than 100 nM in assay [1], 100 to 1000 nM at Ba/F3 cells with EGFR WT, less than 100 nM in assay [2] and less than 100 nM against pEGFR in CUTO14 cells.
Regarding `C=CC(=O)NC1(C#Cc2cnccc2-c2[nH]c3c(c2Nc2cccc(Cl)c2OC)C(=O)NCC3)CC(F)(F)C1` [compound 400], the IC50 in assay [1] was less than 100 nM; on Ba/F3 cells with EGFR WT, 100 to 1000 nM; in assay [2], less than 100 nM; against pEGFR in CUTO14 cells it was less than 100 nM.
With `COc1c(Cl)cccc1Nc1c(-c2ccncc2C#CC2(NC(=O)/C=C/CN(C)C)COC2)[nH]c2c1C(=O)NCC2` [compound 416], the IC50 in assay [1] is 100 to 1000 nM; at Ba/F3 cells with EGFR WT, greater than 1000 nM; in assay [2], 100 to 1000 nM; against pEGFR in CUTO14 cells, less than 100 nM.
As to `C=CC(=O)N1[C@H](C)CC[C@H]1C#Cc1cnccc1-c1[nH]c2c(c1Nc1cccc(F)c1OC)C(=O)NCC2` [compound 257], the IC50 (in assay [1]; at Ba/F3 cells with EGFR WT; in assay [2]; on pEGFR in CUTO14 cells) was less than 100 nM throughout.
For the compound `COc1c(F)cccc1Nc1c(-c2ccncc2OC[C@]2(C)CCN2C(=O)/C=C/CN(C)C)[nH]c2c1C(=O)NCC2` [compound 423], the IC50 is less than 100 nM in assay [1], greater than 1000 nM on Ba/F3 cells with EGFR WT, less than 100 nM in assay [2] and less than 100 nM at pEGFR in CUTO14 cells.
In the case of `COc1c(Cl)cccc1Nc1c(-c2ccncc2OC[C@]2(C)CCN2C(=O)/C=C/CN(C)C)[nH]c2c1C(=O)NCC2` [compound 424], the IC50 in assay [1] is less than 100 nM; at Ba/F3 cells with EGFR WT, 100 to 1000 nM; in assay [2], less than 100 nM; against pEGFR in CUTO14 cells, less than 100 nM.
With `C=CC(=O)N1[C@H]2CC[C@H](C2)[C@@H]1C#Cc1cnccc1-c1[nH]c2c(c1Nc1cccc(F)c1OC)C(=O)NCC2` [compound 252, 3-[(3-fluoro-2-methoxyphenyl)amino]-2-(3-{2-[(1S,3R,4R)-2-(prop-2-enoyl)-2-azabicyclo[2.2.1]heptan-3-yl]ethynyl}pyridin-4-yl)-1H,5H,6H,7H-pyrrolo[3,2-c]pyridin-4-one], the IC50 in assay [1] is less than 100 nM; on Ba/F3 cells with EGFR WT, 100 to 1000 nM; in assay [2] it was less than 100 nM; against pEGFR in CUTO14 cells it was less than 100 nM.
As to `C=CC(=O)N1CCN(C)C[C@H]1COc1cnccc1-c1[nH]c2c(c1Nc1cccc(F)c1OC)C(=O)NCC2` [compound 569], the IC50 was less than 100 nM in assay [1], 100 to 1000 nM on Ba/F3 cells with EGFR WT, less than 100 nM in assay [2] and less than 100 nM at pEGFR in CUTO14 cells.
As to `COc1c(F)cccc1Nc1c(-c2ccncc2C#CC(C)(C)NC(=O)/C=C/CN2CCCC2)[nH]c2c1C(=O)NCC2` [compound 392], the IC50 in assay [1] was less than 100 nM; on Ba/F3 cells with EGFR WT it was 100 to 1000 nM; in assay [2] it was less than 100 nM; on pEGFR in CUTO14 cells, less than 100 nM.
As for `C=CC(=O)NC(C)(C)C#Cc1cnccc1-c1[nH]c2c(c1Nc1cccc(F)c1C)C(=O)NCC2` [compound 385], the half-maximal inhibitory concentration (IC50) (in assay [1]; on Ba/F3 cells with EGFR WT; in assay [2]; at pEGFR in CUTO14 cells) was less than 100 nM in each case.
Turning to `CC#CC(=O)N1CC[C@H]1C#Cc1cnccc1-c1[nH]c2c(c1Nc1cccc(F)c1OC)C(=O)NCC2` [compound 374], the IC50 was less than 100 nM in assay [1], 100 to 1000 nM at Ba/F3 cells with EGFR WT, less than 100 nM in assay [2] and less than 100 nM against pEGFR in CUTO14 cells.
Regarding `C#CC(=O)N1CC[C@@H]1COc1cnccc1-c1[nH]c2c(c1Nc1cccc(Cl)c1OC)C(=O)NCC2` [compound 447], the IC50 in assay [1] is less than 100 nM; at Ba/F3 cells with EGFR WT it was 100 to 1000 nM; in assay [2], less than 100 nM; against pEGFR in CUTO14 cells, less than 100 nM.
As to `C=CC(=O)NC1(C#Cc2cnccc2-c2[nH]c3c(c2Nc2cccc(Cl)c2OC)C(=O)NCC3)CCC1` [compound 261], the IC50 in assay [1] is less than 100 nM; at Ba/F3 cells with EGFR WT, 100 to 1000 nM; in assay [2], less than 100 nM; at pEGFR in CUTO14 cells, less than 100 nM.
For `COc1c(F)cccc1Nc1c(-c2ccncc2C#C[C@H]2C[C@@H]3C[C@@H]3N2C(=O)/C=C/CN(C)C)[nH]c2c1C(=O)NCC2` [compound 345, 2-(3-{2-[(1S,3R,5S)-2-[(2E)-4-(dimethylamino)but-2-enoyl]-2-azabicyclo[3.1.0]hexan-3-yl]ethynyl}pyridin-4-yl)-3-[(3-fluoro-2-methoxyphenyl)amino]-1H,5H,6H,7H-pyrrolo[3,2-c]pyridin-4-one], the IC50 against pEGFR in CUTO14 cells is less than 100 nM.
Still for that read-out and setting: under `Cc1c(F)cccc1Nc1c(-c2ccncc2OC[C@@H]2CCCN2C(=O)/C=C/CN(C)C)[nH]c2c1C(=O)NCC2` [compound 217, 2-(3-{[(2S)-1-[(2E)-4-(dimethylamino)but-2-enoyl]pyrrolidin-2-yl]methoxy}pyridin-4-yl)-3-[(3-fluoro-2-methylphenyl)amino]-1H,5H,6H,7H-pyrrolo[3,2-c] pyridin-4-one] stands less than 100 nM.

A word on the IC50: it is the concentration that gives 50% inhibition.
